Reference: patent US20080194696A1 (priority 2006, published 2008)
Where two headings read alike, the source gives them in different places.

Experiments:
Assay type in all cases: biochemical
[1] = biological target: T1, norepinephrine (NE) transport (Rattus norvegicus, UniProt Q63380); test: Inhibition of [3H]NE uptake in rat hypothalamus synaptosomes; settings: for inhibition at 0.5 µM: read-out: Uptake Inhibition % at 500 nM NE; for Uptake Inhibition % at 500 nM NE: 500 nM test compound, rat hypothalamus synaptosomes, [3H]NE, 20 min at 37° C.
T1 construct: synaptosomal preparations were made from either whole brain (5-HT), striatum (DA) or hypothalamus (NE); from tissue; host or cells: rat hypothalamus synaptosomes
T1 sequence (Q63380 1-617): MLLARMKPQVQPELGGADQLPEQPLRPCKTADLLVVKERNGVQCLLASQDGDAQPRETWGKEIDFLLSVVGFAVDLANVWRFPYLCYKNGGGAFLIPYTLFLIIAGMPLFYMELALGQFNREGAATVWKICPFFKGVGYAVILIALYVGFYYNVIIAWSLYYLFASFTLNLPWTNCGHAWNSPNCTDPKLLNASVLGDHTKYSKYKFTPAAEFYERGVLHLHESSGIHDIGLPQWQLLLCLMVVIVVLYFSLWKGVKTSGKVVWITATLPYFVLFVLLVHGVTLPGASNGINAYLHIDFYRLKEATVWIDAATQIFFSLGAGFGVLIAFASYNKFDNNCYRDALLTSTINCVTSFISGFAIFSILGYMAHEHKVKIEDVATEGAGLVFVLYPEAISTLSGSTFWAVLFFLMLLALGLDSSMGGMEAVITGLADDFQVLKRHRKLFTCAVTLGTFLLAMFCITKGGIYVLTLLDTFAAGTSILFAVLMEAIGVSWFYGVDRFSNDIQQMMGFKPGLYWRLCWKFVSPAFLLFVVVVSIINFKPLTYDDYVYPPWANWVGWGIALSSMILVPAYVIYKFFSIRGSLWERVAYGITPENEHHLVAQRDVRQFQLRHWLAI
Procedure: (§1) The effects of arylbicyclo[3.1.0]hexylamines of the invention for inhibiting transport of norepinephrine (NE) and/or dopamine (DA) and/or serotonin (5-HT) were evaluated using preparations of synaptosomes from different regions of the rat brain according to previously-reported techniques.
(§2) Whole brains were obtained from normal rats, and synaptosomal preparations were made from either whole brain (5-HT), striatum (DA) or hypothalamus (NE) by gentle disruption in 10 volumes (w/v) of 0.32 M sucrose (0-4° C.) using a Teflon-glass homogenizer. The homogenate was then centrifuged at 1000×g for 10 min. The supernatant was retained and centrifuged at 23000 g for 20 min. The resulting pellet was gently resuspended in 200 volumes of 0.32 M sucrose (0-4° C.) using a teflon-glass homogenizer. Aliquots (250 μL) of this preparation were added to tubes, along with 0.2 μCi/mL of [^3H]5-HT, [^3H]DA, or [^3H]NE, 200 μL of selected 1-arylbicyclo[3.1.0]hexanamine test compounds (to yield final concentrations of 500 nM) and 1 mL of Krebs-Ringer bicarbonate buffer (pH 7.4). […] At the end of this period, the assay was terminated by rapid filtration over Whatman GF/C glass fiber filters. The filters were rinsed 3 times with 4 ml of Krebs-Ringer bicarbonate buffer (0-4° C.), and the radioactivity retained on the filters was measured by liquid scintillation spectrometry.

[2] = biological target: T2, serotonin (5-HT) transport (Rattus norvegicus, UniProt P31652); test: Inhibition of [3H]5-HT uptake in rat whole brain synaptosomes; settings: for inhibition at 0.5 µM: read-out: Uptake Inhibition % at 500 nM 5-HT; for Uptake Inhibition % at 500 nM 5-HT: 500 nM test compound, rat whole brain synaptosomes, [3H]5-HT, 15 min at 37° C.
T2 sequence (P31652 whole entry): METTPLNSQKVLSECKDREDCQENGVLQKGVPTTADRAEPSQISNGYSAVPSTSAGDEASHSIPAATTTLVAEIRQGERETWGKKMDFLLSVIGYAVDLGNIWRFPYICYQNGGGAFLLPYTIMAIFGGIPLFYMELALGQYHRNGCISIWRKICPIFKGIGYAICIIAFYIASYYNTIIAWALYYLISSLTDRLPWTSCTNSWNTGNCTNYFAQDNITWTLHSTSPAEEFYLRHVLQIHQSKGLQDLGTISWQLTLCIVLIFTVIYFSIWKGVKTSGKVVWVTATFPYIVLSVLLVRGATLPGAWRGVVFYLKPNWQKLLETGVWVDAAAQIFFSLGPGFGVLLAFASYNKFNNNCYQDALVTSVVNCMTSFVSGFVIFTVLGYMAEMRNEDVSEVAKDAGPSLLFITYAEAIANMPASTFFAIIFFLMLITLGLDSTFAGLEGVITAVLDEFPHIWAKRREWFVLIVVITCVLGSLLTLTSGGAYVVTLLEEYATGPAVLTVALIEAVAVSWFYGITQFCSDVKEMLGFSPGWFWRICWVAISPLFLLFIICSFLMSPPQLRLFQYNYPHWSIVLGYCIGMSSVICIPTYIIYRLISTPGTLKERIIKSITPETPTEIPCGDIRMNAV
Procedure: as §1, §2

[3] = biological target: T3, dopamine (DA) transport (Rattus norvegicus, UniProt P23977); test: Inhibition of [3H]DA uptake in rat striatum synaptosomes; design: synaptosomal preparations were made from either whole brain (5-HT), striatum (DA) or hypothalamus (NE); from tissue; host or cells: rat striatum synaptosomes; settings: for inhibition at 0.5 µM: read-out: Uptake Inhibition % at 500 nM DA; for Uptake Inhibition % at 500 nM DA: 500 nM test compound, 15 min at 37° C.
Procedure: as §1
as §2, with “([…])” for “(to yield final concentrations of 500 nM)”
Target sequence in this assay (P23977 whole entry): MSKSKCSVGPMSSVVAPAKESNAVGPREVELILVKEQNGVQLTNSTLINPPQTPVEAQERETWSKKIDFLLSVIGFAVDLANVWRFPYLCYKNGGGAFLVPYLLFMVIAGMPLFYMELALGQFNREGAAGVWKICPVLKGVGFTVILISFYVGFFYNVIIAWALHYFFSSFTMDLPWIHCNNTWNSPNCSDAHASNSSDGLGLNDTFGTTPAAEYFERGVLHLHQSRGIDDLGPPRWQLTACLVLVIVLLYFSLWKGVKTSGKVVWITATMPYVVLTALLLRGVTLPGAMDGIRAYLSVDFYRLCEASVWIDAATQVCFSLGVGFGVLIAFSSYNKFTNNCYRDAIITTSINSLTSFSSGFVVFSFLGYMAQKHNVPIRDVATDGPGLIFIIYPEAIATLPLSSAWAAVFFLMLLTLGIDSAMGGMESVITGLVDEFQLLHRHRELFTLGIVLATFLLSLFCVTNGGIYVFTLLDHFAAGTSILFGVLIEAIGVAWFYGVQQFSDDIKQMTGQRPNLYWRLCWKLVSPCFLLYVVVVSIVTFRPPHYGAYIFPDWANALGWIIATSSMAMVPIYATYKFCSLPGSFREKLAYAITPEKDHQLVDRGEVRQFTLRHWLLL

[4] = biological target: T1, norepinephrine (NE) transport; test: Inhibition of [3H]NE uptake in rat hypothalamus synaptosomes
[5] = biological target: T2, serotonin (5-HT) transport; test: Inhibition of [3H]5-HT uptake in rat whole brain synaptosomes
[6] = biological target: T3, dopamine (DA) transport; test: Inhibition of [3H]DA uptake in rat striatum synaptosomes
Procedure: as §1
as §2, with “([…])” for “(to yield final concentrations of 500 nM)”
Target sequence in this assay (P23977 whole entry, looked up): as the sequence (P23977 whole entry) above

[7] = rat striatum synaptosomes, [3H]DA, read-out: Uptake IC50 (nM) DA
[8] = rat striatum synaptosomes, [3H]DA

Molecule	inhibition at 0.5 µM [1]	inhibition at 0.5 µM [2]	inhibition at 0.5 µM [3]	further results
NC1C[C@@H]2C[C@]2(c2ccc(Cl)c(Cl)c2)C1 (stereo partly shown)	59%	75%	83%	–
NC1C[C@H]2C[C@@]2(c2cccc3ccccc23)C1 (stereo partly shown)	76%	65%	53%	IC50 [4]: 282 nM; IC50 [3, 7]: 496 nM; IC50 [5]: 425 nM
Cc1ccc(C23CCC(N)C2C3)cc1 (stereo not shown)	50%	25%	31%	–
CNC1CCC2(c3ccc(C)cc3)CC12 (stereo not shown)	89%	37%	63%	IC50 [1]: 313 nM; IC50 [2]: 1190 nM; IC50 [3]: 858 nM
Cc1ccc(C23CCC(N(C)C)C2C3)cc1 (stereo not shown)	57%	44%	55%	–
CNC1CCC2(c3ccc(Cl)c(Cl)c3)CC12 (stereo not shown)	63%	94%	56%	IC50 [1]: 444 nM; IC50 [2]: 75 nM; IC50 [3]: 360 nM
CN(C)C1CCC2(c3ccc(Cl)c(Cl)c3)CC12 (stereo not shown)	29%	95%	34%	–
CNC1CCC2(c3cccc4ccccc34)CC12 (stereo not shown)	49%	90%	29%	–
CN(C)C1CCC2(c3cccc4ccccc34)CC12 (stereo not shown)	25%	76%	15%	–
CNC1CCC2(c3ccc4ccccc4c3)CC12 (stereo not shown)	47%	90%	45%	–
CN(C)C1CCC2(c3ccc4ccccc4c3)CC12 (stereo not shown)	26%	96%	42%	–
NC1C[C@H]2C[C@@]2(c2ccc(Cl)c(Cl)c2)C1 (stereo partly shown)	–	–	–	IC50 [6]: 60 nM
5-p-tolylbicyclo[3.1.0]hexan-2-amine	–	–	–	Uptake Inhibition % at 500 nM NE [1]: 42%; Uptake Inhibition % at 500 nM 5-HT [2]: 74%; Uptake Inhibition % at 500 nM DA [3, 8]: 39%
CN(C)C1CCC2CC21c1ccc(Cl)c(Cl)c1 (stereo not shown) [1-(3,4-dichlorophenyl)-N,N-dimethylbicyclo[3.1.0]hexan-2-amine]	96%	38%	99%	IC50 [1]: 11 nM; IC50 [2]: 1240 nM; IC50 [3]: 9 nM
CNC1CCC2CC21c1ccc(Cl)c(Cl)c1 (stereo not shown) [1-(3,4-dichlorophenyl)-N-methylbicyclo[3.1.0]hexan-2-amine]	94%	15%	101%	IC50 [1]: 18 nM; IC50 [3]: 3 nM; IC50 [5]: 3680 nM
NC1CCC2CC12c1ccc(Cl)c(Cl)c1 (stereo not shown) [1-(3,4-dichlorophenyl)bicyclo[3.1.0]hexan-2-amine]	34%	5%	86%	–
NC1CC2CC2(c2ccc(Cl)c(Cl)c2)C1 (stereo not shown) [1-(3,4-dichlorophenyl)bicyclo[3.1.0]hexan-3-amine]	76%	89%	77%	IC50 [4]: 126 nM; IC50 [3, 7]: 111 nM; IC50 [5]: 38 nM
Cc1ccc(C23CC2CCC3N)cc1 (stereo not shown) [1-p-tolylbicyclo[3.1.0]hexan-2-amine]	14%	20%	18%	–
Cc1ccc(C23CC(N)CC2C3)cc1 (stereo not shown) [1-p-tolylbicyclo[3.1.0]hexan-3-amine]	38%	21%	44%	–
Cc1ccc(C23CC2CCC3N(C)C)cc1 (stereo not shown) [N,N-dimethyl-1-p-tolylbicyclo[3.1.0]hexan-2-amine]	71%	0%	70%	IC50 [1]: 2090 nM; IC50 [2]: > 5000 nM; IC50 [3]: 335 nM
Cc1ccc(C23CC(N(C)C)CC2C3)cc1 (stereo not shown) [N,N-dimethyl-1-p-tolylbicyclo[3.1.0]hexan-3-amine]	50%	66%	0%	–
CNC1CCC2CC21c1ccc(C)cc1 (stereo not shown) [N-methyl-1-p-tolylbicyclo[3.1.0]hexan-2-amine]	8%	4%	33%	–
CNC1CC2CC2(c2ccc(C)cc2)C1 (stereo not shown) [N-methyl-1-p-tolylbicyclo[3.1.0]hexan-3-amine]	73%	69%	43%	–
N-methyl-5-p-tolylbicyclo[3.1.0]hexan-2-amine	–	–	–	Uptake Inhibition % at 500 nM NE [1]: 81%; IC50 [4]: 74 nM; Uptake Inhibition % at 500 nM 5-HT [2]: 82%; Uptake Inhibition % at 500 nM DA [3, 8]: 23%; IC50 [3, 7]: 8730 nM; IC50 [5]: 76 nM
